Reference: US20160083424A1, “COMPOSITIONS AND METHODS FOR TARGETING ANTIGEN-PRESENTING CELLS” (OSLO UNIVERSITETSSYKEHUS HF, priority 2013, published 2016)
Read-outs that look alike come from different tables or passages of the source. Where no end group is shown, it is not given here.

Legend:
[1] = tested on: DCs; experiment: Fluorescence microscopy analysis of phage binding and internalization; format: cell-based, human; conditions: 37° C. for 90 min
Procedure: DCs were incubated with biotinylated phages at 4° C. for 30 min. After washing, the cells were incubated with streptavidin-PE. […] Hoechst 33342 dye was added to the cells for 5 min and then the cells were washed, fixed with 4% paraformaldehyde, and covered with Dako cytomation fluorescent mounting medium and analyzed with epifluorescence microscopy. Confocal images were obtained using an AxioVert 200 microscope (Carl Zeiss, Jena, Germany).

[2] = tested on: THP-1; experiment: Phage binding by flow cytometry; conditions: human monocyte cell line THP-1
Procedure: (§1) In brief, aliquots of DCs (10^5) were divided into conical 96-well micro-plate, washed with PBS buffer containing 1% FCS, and then incubated with the amplified phages (≈10^9 TU) for 30-60 min on ice. After washing, cells were incubated with biotinylated anti-M13 monoclonal antibody (Abcam) and then with phycoerythrin (PE)-conjugated streptavidin. Competition assays were performed by pre-incubating DCs with different amounts of the peptides for 15 min on ice. Then NW phage (≈10^9 TU) was added and samples incubated for additional 60 min on ice. After washing, bound phages were detected as indicated above. Samples were analyzed by FACSCanto II flow cytometry.

[3] = tested on: Blood myeloid DCs; experiment: Phage binding by flow cytometry; design: species or system human
Procedure: as §1

[4] = tested on: mDCs; experiment: Phage binding by flow cytometry; design: species or system human
Procedure: as §1

[5] = tested on: iDCs; experiment: Phage binding by flow cytometry; design: species or system human
Procedure: as §1

[6] = tested on: Blood pDCs; experiment: Phage binding by flow cytometry; design: species or system human
Procedure: as §1

[7] = tested on: Monocytes; experiment: Phage binding by flow cytometry; design: species or system human
Procedure: as §1

[8] = tested on: Cancer cell lines (MCF-7, MDA-MB 231, SW480, REH); experiment: Phage binding by flow cytometry; design: species or system human; conditions: all tested cancer cell lines
Procedure: as §1

[9] = tested on: T cells; experiment: Phage binding by flow cytometry; design: species or system human
Procedure: as §1

[10] = tested on: B cells; experiment: Phage binding by flow cytometry; design: species or system human
Procedure: as §1

[11] = tested on: NK cells; experiment: Phage binding by flow cytometry; design: species or system human
Procedure: as §1

[12] = tested on: human Gal-3; experiment: Gene silencing by peptide-siRNA conjugates, Western blot; format: cell-based; conditions: iDCs, 48 h incubation
Procedure: Immature DCs were seeded in a 6-well plate at a density of 10^6 cells per well and incubated for 24 h prior to transfection. Then the medium was replaced by fresh X-vivo 15 medium (2 ml/well) containing peptide-siRNA conjugates or free siRNAs. Cells were harvested 48 h after addition of the test molecules and monitored for gene expression by Western blots.
Cells were resuspended in protein extraction buffer (PBS+1% NP-40) supplemented with protease inhibitor cocktail (Sigma-Aldrich Norge, Oslo, Norway) and incubated for 30 min on ice. After centrifugation, the supernatant were collected and protein contents were determined using Bio-Rad protein assay. Equal amounts of protein were resolved by electrophoresis on a 10% sodium dodecyl sulfate (SDS)-polyacrylamide gel and electrotransferred to nitrocellulose membrane. After blocking in 5% milk in TBS-Tween (1%) for 60 min, membranes were probed with primary antibodies against Gal-3 and HRP-conjugated secondary antibody. Immunoreactive proteins were detected using the enhanced chemiluminescence system. To control for protein loading, membranes were stripped and then incubated with β-actin monoclonal antibody.
Because siRNA molecules must be released into the cytoplasm in order to function (Elbashir et al., (2001) Nature 411, 494-498), the data further confirm the internalization of the peptide after binding to DCs.

[13] = tested on: iDC; experiment: Competition of NW phage binding by synthetic peptides; design: species or system human
Procedure: as §1
To further investigate the importance of the NW peptide on phage binding, competition experiments were performed using synthetic peptides.

[14] = target: Monocytes; experiment: Competition of NW phage binding by NW peptide and its mutant peptides; design: species or system human
Procedure: as §1
To uncover the contribution of individual side chains and identify which amino acids are responsible for the NW peptide binding to monocytes and dendritic cells, alanine scanning was performed. Derivatives of the NW peptide were synthesized with exchange of each amino acid by alanine (FIG. 11A). These peptide derivatives were used to compete with the NW phage binding to monocytes. For each peptide, four concentrations were tested. Bound phage particles were detected with the use of biotin conjugated anti-M13 antibody and PE-conjugated streptavidin. The NW peptide (WT) competed effectively with the phage binding to monocytes with an IC50 of approximately 0.5 uM. The replacement of tryptophan (W) at position 2, 6, or 12 by a single alanine abolished the binding. Indeed, no significant competition with the phage binding was seen even at high peptide concentrations (C4=20 uM). Similarly, replacement of leucine (L) at position 4 or 7 by alanine inhibited the peptide binding (FIG. 11B).

[15] = tested on: mDC; experiment: Phenotypic analysis of DCs after peptide incubation; format: cell-based, human; conditions: mDC incubated with peptide (15 μM) for 48 h, flow cytometry
Procedure: Phenotype of DCs was analyzed by direct immunofluorescence staining of cell surface antigens using FITC or PE conjugated antibodies against CD80, CD83, CD86, HLA-DR, CCR7, CD40, and isotype controls. All antibodies were purchased from Dako (Glostrup, Denmark) or BD Biosciences (San Diego, Calif., USA). After staining on ice for 30 min, samples were washed twice and then analyzed by FACSCantoII flow cytometry
(§2) With respect to cancer immunotherapy and active immunization against infectious diseases, targeting moieties should not have a negative impact on DC immunogenic function. To investigate whether the NW peptide can modulate DC phenotype and function, mDC were incubated with the peptide for 48 h and subsequently the expression of CD80, CD83, CD86, and HLADR molecules were analyzed by flow cytometry. […] The ability of mDCs to stimulate T-cell proliferation was assessed in a mixed leukocyte reaction (MLR), a hallmark of DC function. […] The NW-peptide had no major negative effects on DC phenotype and function.

[16] = tested on: mDCs; experiment: Mixed leukocyte reaction (MLR); format: cell-based, human; conditions: peptide-treated vs untreated mDCs
Procedure: as §2

[17] = tested on: Blood myeloid DCs; experiment: Peptide binding by flow cytometry; design: species or system human
Procedure: (§3) The cells were seeded onto 24-well plate (3×10^5/well/0.5 ml) in X-vivo 15 medium and incubated overnight at 37° C. Subsequently, they were incubated with 6IAF-conjugated peptides (5 μg/ml) for 30 min at 37° C., gently scraped, washed 3 times and then analyzed by flow cytometry. Binding was also performed at 4° C.

[18] = tested on: iDCs; experiment: Peptide binding by flow cytometry; design: species or system human; conditions: 4° C. and 37° C.
Procedure: as §3

[19] = tested on: Blood pDCs; experiment: Peptide binding by flow cytometry; design: species or system human
Procedure: as §3

[20] = tested on: Monocytes; experiment: Peptide binding by flow cytometry; design: species or system human; conditions: compared with dendritic cells
Procedure: as §3

[21] = tested on: T cells; experiment: Peptide binding by flow cytometry; design: species or system human
Procedure: as §3

[22] = tested on: B cells; experiment: Peptide binding by flow cytometry; design: species or system human
Procedure: as §3

[23] = tested on: NK cells; experiment: Peptide binding by flow cytometry; design: species or system human
Procedure: as §3

[24] = tested on: iDCs; experiment: Peptide binding and internalization by fluorescence microscopy; format: cell-based, human
Procedure: Then the medium was replaced with fresh medium and the cells were incubated with the peptides (5 μg/ml) for 60 min at 37° C. followed by 5 min incubation with Hoechst 33342 (Invitrogen Dynal AS, Oslo, Norway). The cells were washed twice with PBS and fixed with 4% paraformaldehyde for 15 min at 4° C. After washing, slides were covered with Dako cytomation fluorescent mounting medium and then images were taken with either epifluorescence (Leica DM RHC, Leica Microscopy As, Oslo, Norway) or confocal microscopy (Zeiss LSM 510, […]).

[25] = tested on: iDCs
Procedure: Commercially available streptavidin-PE (1/200) was incubated with biotinylated NW peptide or control peptide (1 μg/ml) for 30 min at RT. Then the mixtures were added to DCs growing in Lab-Tek chamber slides (Nalge Nunc International, Naperville, USA) and incubated for 60 min at 4° C. The cells were washed 3 times with medium and incubated at 37° C. for 90 min to allow internalization of bound streptavidin-PE. To visualize the nuclei, Hoechst 33342 (Invitrogen Dynal AS, Oslo, Norway) was added to the cells for 5 min. Subsequently, the cells were fixed with 4% paraformaldehyde, washed and slides were covered with Dako cytomation fluorescent mounting medium followed by epifluorescence microscopy analysis. Confocal images were taken with an AxioVert 200 microscope (Carl Zeiss, Jena, Germany).
The use of the NW peptide to target antigens to DCs was assessed by examining its ability to promote the binding and uptake of streptavidin-PE complexes. For these experiments, streptavidin-PE was pre-incubated with either biotin conjugated NW peptide or biotin conjugated control peptide and then the mixtures were added to iDCs growing in Lab-Tek chamber slides, incubated at 4° C., washed and then transferred at 37° C.

[26] = tested on: Monocytes; conditions: biotin labeled peptide (10 μg), Dynabeads M-280 streptavidin, flow cytometry
Procedure: In these experiments, peripheral blood mononuclear cells were isolated from buffy coats of healthy donors by density gradient centrifugation. […] Subsequently, the cells were washed with the binding buffer to remove unbound peptide and then they were suspended in 100 μl binding buffer. Subsequently, pre-washed Dynabeads M-280 streptavidin (20 μl) were added and the mixtures were incubated for 15 min at room temperature with agitation. After, the mixtures were placed in the separation magnet, during which time the beads and any attached cells are drawn to one side of the tube. Non-attached cells were carefully aspirated off and analyzed by flow cytometry to check the removal of the monocyte fraction (FIG. 15).

[27] = target: NW peptide receptor (human); experiment: competition with NW phage on monocytes, flow cytometry; C3 = 8 µM peptide
[28] = target: NW peptide receptor (human); experiment: competition with NW phage on monocytes, flow cytometry

Molecule: NWYLPWLGTNDW [DC2]
- internalization of the phage particles into DCs [1]: able to mediate the internalization of the phage particles into DCs
- phage binding [2]: did not bind
- Phage Binding ([3]; Blood myeloid DCs): ++++ (Binding >80-100%: ++++)
- phage binding ([3]; blood CD1c+ myeloid DCs): bound
- Phage Binding [4]: ++++ (Binding >80-100%: ++++)
- phage binding [4]: strong binding
- phage binding after trypsine treatment of DCs ([5]; Trypsine treatment of DCs, data not shown): eliminated phage binding
- Binding ([5]; binding of the phage clones to iDC, flow cytometry): ++++ (Binding >80-100%: ++++)
- phage binding ([5]; iDC): strong binding
- Phage Binding ([5]; iDCs): ++++ (Binding >80-100%: ++++)
- Phage Binding ([6]; Blood pDCs): ++++ (Binding >80-100%: ++++)
- phage binding ([6]; CD303+ plasmacytoid DCs): bound
- Phage Binding [7]: ++++ (Binding >80-100%: ++++)
- phage binding [7]: strong binding
- phage binding [8]: did not bind
- phage binding [9]: did not bind
- phage binding [10]: did not bind
- phage binding [11]: did not bind

Molecule: NWYLPWLGTNDWC [NW peptide, NWYLPWLGTNDWC]
- Gal-3 gene silencing [12]: did not induce any detectable gene silencing
- inhibition of the phage binding to iDC by synthetic peptides [13]: effectively inhibited the phage binding to iDC in a concentration-dependent manner
- IC50 ([14]; dose-dependent inhibition, peptide concentrations 0.4, 2, 8, and 20 μM, read-out: inhibition of the NW phage binding, IC50): 500 nM
- IC50 ([14]; monocytes, read-out: competition with the phage binding to monocytes, IC50): ~500 nM
- expression of CD80, CD83, CD86, and HLADR molecules [15]: None of the analyzed markers were significantly affected
- T-cell proliferation in MLR [16]: comparable T-cell proliferation
- peptide binding ([17]; Blood myeloid DCs): ++++ (Binding >80-100%: ++++)
- peptide binding ([17]; blood CD1c+ myeloid DCs): bound efficiently
- peptide binding ([17]; blood CD1c+ myeloid DCs, listed as synthetic peptide): bound
- binding of 6-IAF-conjugated peptides to iDCs [18]: strong binding both at 4 °C and 37 °C
- peptide binding ([19]; Blood pDCs): ++++ (Binding >80-100%: ++++)
- peptide binding ([19]; CD303+ plasmacytoid DCs): bound efficiently
- peptide binding ([19]; CD303+ plasmacytoid DCs, listed as synthetic peptide): bound
- peptide binding [20]: bound as strongly to monocytes as to dendritic cells
- peptide binding [21]: did not bind
- peptide binding [22]: did not bind
- peptide binding [23]: did not bind
- cell staining by epifluorescence microscopy ([24]; 6-IAF-conjugated peptide): strong cell staining
- internalization by iDCs (confocal microscopy) ([24]; 37° C.): efficiently internalized by iDCs

Molecule: NWYLPWLGTNDWGGGK-Biotin [NW-Biotin peptide]
- binding of streptavidin-PE complexes to DCs ([25]; biotinylated peptide pre-incubated with streptavidin-PE, 4° C.): mediated the binding of streptavidin-PE complexes to DCs
- internalization of streptavidin-PE ([25]; confocal microscopy, after transfer to 37° C.): clear internalization and cellular localization of streptavidin-PE molecules
- removal of the monocyte fraction from PBMC [26]: most, if not all monocyte population were removed

Molecule: NWYLPWLGTAAW [N10D11 double mutant]
- mean fluorescence of bound NW phage at C3 concentration [27]: 250

Molecule: NWYLPWLGTW [NW peptide with deletion of N10D11]
- fold reduction in IC50 against the NW peptide [28]: 20 fold
